According to paper PMC4906375, “Contribution of Amphipathicity and Hydrophobicity to the Antimicrobial Activity and Cytotoxicity of β-Hairpin Peptides” (ACS Infectious Diseases, 2016):
Values after ≈ are worked out from the molar mass of the structure shown. Residues, ends and D or L forms follow the SMILES beside them.

Tests used:
[1] = test system: S. aureus ATCC 43300 (MRSA); experiment: microbe, parasite or virus in culture; assay type: cell-based, Staphylococcus aureus; conditions: S. aureus ATCC 43300 (MRSA); n = 4
Protocol: (§1) Both antibacterial and antifungal MIC assays were performed by a broth microdilution plate based method as per CLSI guidelines for antimicrobial susceptibility testing.[53],[54] […] Full assay details are included in the Supporting Information with a full list of strains tested in Table S1.
(§2) Antibacterial assay (Minimum Inhibitory Concentration [MIC]).
(§3) MIC assay was performed by a broth microdilution plate based method as per CLSI guidelines for antimicrobial susceptibility testing of aerobic bacteria.1 Compounds were prepared at 1.28 mg/mL solution in water. The tested strains, Table S1, were cultured in Luria broth (LB) (In Vitro Technologies, USB75852), at 37 °C overnight. A sample of culture was then diluted 40Pfold in fresh Muller Hinton broth (MHB) (Bacto laboratories, 211443) and incubated at 37 °C for 1.5P2 h. The compounds were serially diluted twoPfold across the wells, with compound concentrations ranging from 0.015 µg/mL to 512 µg/mL, plated in duplicate. The resultant midPlog phase cultures were diluted to the final concentration of 1×10^6 CFU/mL, then 50 µL was added to each well of the compoundP containing 96Pwell plates (Corning 3641, NonPbinding Surface [NBS]), giving a final compound concentration range of 0.008 µg/mL to 256 µg/mL and 5x10^5 CFU/mL. All the plates were covered and incubated at 37 °C for 18 h. MICs were determined visually, being defined as the lowest concentration showing no visible growth. Resazurin was added at 0.001% final concentration to each well and incubated for 2 h before MICs were rePread for confirmation using the colour change from blue to pink to indicate wells containing viable cells. The resazurin assay was added in some wells where some form of precipitate was present in otherwise clear wells, making it difficult to ascertain which wells had visible […]
(§4) Antifungal assay (Minimum Inhibitory Concentration [MIC]). MIC assay was performed by a broth microdilution plate based method as per CLSI guidelines for antimicrobial susceptibility testing.2 Fungi strains, Table S1, were cultured for 3 days on Yeast ExtractPPeptone Dextrose (YPD) (SigmaPAldrich, Y1500) agar at 30 °C. A yeast suspension of 1x10^6 to 5x10^6 CFU/mL was prepared from five colonies. These stock suspensions were diluted with Yeast Nitrogen Base (YNB) (Becton Dickinson, 233520) broth to a final concentration of 2.5 ×10^3 CFU/mL. All samples, compounds and standards were plated in 96Pwell plates (Corning 3641, NonPbinding Surface [NBS]), by adding 10 µL of 1.28 mg/mL stock solution to each well and 90 µL of media. Then, the samples were serial diluted (1:2) in 12 concentrations across the plate. The standard antifungal ranged from 256

P. aeruginosa ATCC 27853 = assay type: cell-based, Pseudomonas aeruginosa; conditions: ATCC 27853
Protocol: as §1, §2, §3, §4

K. pneumoniae ATCC 13883 = assay type: cell-based, Klebsiella pneumoniae; conditions: ATCC 13883
Protocol: as §1, §2, §3, §4

[2] = test system: K. pneumoniae BAA 2146 (NDM-1 pos); assay type: cell-based, Klebsiella pneumoniae; conditions: n = 4
Protocol: as §1, §2, §3, §4

[3] = test system: K. pneumoniae ATCC 700603 (MDR); assay type: cell-based, Klebsiella pneumoniae; conditions: n = 4
Protocol: as §1, §2, §3, §4

B. subtilis ATCC 6051 = experiment: microbe, parasite or virus in culture; assay type: cell-based, Bacillus subtilis; conditions: ATCC 6051
Protocol: as §1, §2, §3, §4

[4] = test system: C. neoformans ATCC 208821; experiment: microbe, parasite or virus in culture; assay type: cell-based, Cryptococcus neoformans
Protocol: as §1, §2, §3
as §4, with “256 […]” for “256”
µg/mL to 0.12 µg/mL and compounds from 128 µg/mL to 0.06 µg/mL with final volumes of 50 µL per well, plated in duplicate. Then, 50 µL of the fungi suspension that was previously prepared in YNB broth to the final concentration of 2.5×10^3 CFU/mL, was added to each well of the compoundPcontaining plates, giving a final standard compound concentration range of 128 µg/mL to 0.06 µg/mL and tested compound from 64 µg/mL to 0.03 µg/mL. Plates were covered and incubated at 35 °C for 24 h. Candida albicans MICs were determined by measuring the absorbance at OD530. For Cryptococcus neoformans 10 µL of 0.06 % resazurin were added to the 24 h incubated plates. Then, these plates were incubated for another 3 h.
Cryptococcus neoformans MICs were determined by measuring the absorbance at OD570P600. […]

A. baumannii ATCC 19606 = assay type: cell-based, Acinetobacter baumannii; conditions: ATCC 19606
Protocol: as §1, §2, §3, §4

[5] = test system: E. coli ATCC 25922 cytoplasmic membrane; experiment: Inner membrane permeability measured by SYTOX green fluorescence emission; conditions: for permeabilisation of the E. coli cytoplasmic membrane at lethal concentrations: SYTOX green, E. coli ATCC 25922, 1 h
[6] = test system: E. coli ATCC 700926 (K12); assay type: cell-based, Escherichia coli; conditions: ATCC 700926
Protocol: as §1, §2, §3, §4

[7] = test system: E. coli ATCC 25922 (control strain); assay type: cell-based, Escherichia coli; conditions: ATCC 25922
Protocol: as §1, §2, §3, §4

E. coli MB 4902 (ΔlpxC) = assay type: cell-based, Escherichia coli; conditions: n = 4
Protocol: as §1, §2, §3, §4

SMILES	MIC [1] [µg/mL]	MIC (P. aeruginosa ATCC 27853) [µg/mL]	MIC (K. pneumoniae ATCC 13883) [µg/mL]	MIC [2] [µg/mL]	MIC [3] [µg/mL]	MIC (B. subtilis ATCC 6051) [µg/mL]	MIC ([4]; ATCC 208821) [µg/mL]	MIC (A. baumannii ATCC 19606) [µg/mL]	permeabilisation of the E. coli cytoplasmic membrane at lethal concentrations [5]	MIC [6] [µg/mL]	MIC [7] [µg/mL]	MIC (E. coli MB 4902 (ΔlpxC)) [µg/mL]	permeabilization concentration relative to MIC ([5]; same E. coli ATCC 25922 strain)	MIC ([4]; C. neoformans ATCC 208821, n = 4) [µg/mL]
CC(C)[C@@H]1NC(=O)CNC(=O)[C@H](CC(N)=O)NC(=O)[C@H](CCCNC(=N)N)NC(=O)[C@H](Cc2ccc(O)cc2)NC(=O)[C@H](C(C)C)NC(=O)[C@@H]2CSSC[C@H](NC(=O)[C@H](C(C)C)NC(=O)[C@H](CCCNC(=N)N)NC1=O)C(=O)N[C@@H](Cc1ccc(O)cc1)C(=O)N[C@@H](CCCNC(=N)N)C(=O)N[C@@H](CCCNC(=N)N)C(=O)N[C@H](C(=O)N[C@@H](CC(N)=O)C(=O)O)CSSC[C@H](NC(=O)[C@H](Cc1ccccc1)NC(=O)CN)C(=O)N[C@@H](Cc1c[nH]c3ccccc13)C(=O)N[C@@H](Cc1ccc(O)cc1)C(=O)N[C@@H](C(C)C)C(=O)N2 [arenicin-3] (HELM PEPTIDE1{G.F.C.W.Y.V.C.V.Y.R.N.G.V.R.V.C.Y.R.R.C.N}$PEPTIDE1,PEPTIDE1,3:R3-20:R3|PEPTIDE1,PEPTIDE1,7:R3-16:R3$$$V2.0)	64 (≈ 24.5 µM)	1 (≈ 0.383 µM)	1 (≈ 0.383 µM)	4 (≈ 1.53 µM)	4 (≈ 1.53 µM)	8 (≈ 3.06 µM)	8 (≈ 3.06 µM)	0.5 (≈ 0.191 µM)	permeabilise	0.25 (≈ 0.0957 µM)	0.5 (≈ 0.191 µM)	0.125 (≈ 0.0478 µM)	–	–
CC(C)[C@@H]1NC(=O)[C@H](CCCNC(=N)N)NC(=O)[C@H](Cc2ccccc2)NC(=O)[C@@H](NC(=O)[C@H](Cc2c[nH]c3ccccc23)NC(=O)[C@H](CCCNC(=N)N)NC(=O)[C@@H](N)CCCNC(=N)N)CSSC[C@@H](C(=O)N[C@@H](CCCNC(=N)N)C(N)=O)NC(=O)[C@H](CCCCN)NC(=O)[C@H](CCCNC(=N)N)NC(=O)[C@H](Cc2ccc(O)cc2)NC(=O)[C@@H]2CSSC[C@H](NC1=O)C(=O)N[C@@H](Cc1ccc(O)cc1)C(=O)N[C@@H](CCCNC(=N)N)C(=O)NCC(=O)N[C@@H](Cc1ccccc1)C(=O)N2 [polyphemusin-1] (HELM PEPTIDE1{R.R.W.C.F.R.V.C.Y.R.G.F.C.Y.R.K.C.R.[am]}$PEPTIDE1,PEPTIDE1,4:R3-17:R3|PEPTIDE1,PEPTIDE1,8:R3-13:R3$$$V2.0)	2 (≈ 0.815 µM)	2 (≈ 0.815 µM)	0.5 (≈ 0.204 µM)	2 (≈ 0.815 µM)	1 (≈ 0.407 µM)	0.25 (≈ 0.102 µM)	0.06 (≈ 0.0244 µM)	0.06 (≈ 0.0244 µM)	permeabilise	0.06 (≈ 0.0244 µM)	0.5 (≈ 0.204 µM)	0.03 (≈ 0.0122 µM)	lower concentration than their MIC	–
[H][C@]12CSSC[C@]([H])(NC(=O)[C@]([H])([C@@H](C)CC)NC(=O)CNC(=O)[C@H](CCCNC(=N)N)NC(=O)[C@H](Cc3ccc(O)cc3)NC1=O)C(=O)N[C@@H](Cc1ccc(O)cc1)C(=O)N[C@@H](CCCNC(=N)N)C(=O)N[C@@H](CCCNC(=N)N)C(=O)N[C@H](C(=O)N[C@@H](CCCNC(=N)N)C(N)=O)CSSC[C@H](NC(=O)[C@H](Cc1c[nH]c3ccccc13)NC(=O)[C@@H](N)CCCCN)C(=O)N[C@@H](Cc1ccccc1)C(=O)N[C@@H](CCCNC(=N)N)C(=O)N[C@@H](C(C)C)C(=O)N2 [tachyplesin-1] (HELM PEPTIDE1{K.W.C.F.R.V.C.Y.R.G.I.C.Y.R.R.C.R.[am]}$PEPTIDE1,PEPTIDE1,3:R3-16:R3|PEPTIDE1,PEPTIDE1,7:R3-12:R3$$$V2.0)	1 (≈ 0.442 µM)	0.25 (≈ 0.11 µM)	0.125 (≈ 0.0552 µM)	0.25 (≈ 0.11 µM)	0.25 (≈ 0.11 µM)	0.125 (≈ 0.0552 µM)	0.125 (≈ 0.0552 µM)	0.125 (≈ 0.0552 µM)	permeabilise	0.03 (≈ 0.0133 µM)	0.06 (≈ 0.0265 µM)	0.016 (≈ 0.00707 µM)	–	–
CC[C@H](C)[C@H](NC(=O)[C@@H](NC(=O)[C@@H]1CCCN1C(=O)[C@@H](NC(=O)[C@@H]1CCCN1C(=O)[C@H](CCCCN)NC(=O)[C@H](CCCCN)NC(=O)[C@H](CO)NC(=O)CN)C(C)C)[C@@H](C)CC)C(=O)N[C@@H](Cc1ccc(O)cc1)C(=O)N[C@H]1CSSC[C@@H](C(=O)N[C@@H](CCC(N)=O)C(=O)N[C@@H](CCCNC(=N)N)C(=O)N[C@@H](CCSC)C(N)=O)NC(=O)[C@H](CCCCN)NC(=O)CNC(=O)[C@H]([C@@H](C)O)NC(=O)[C@H](CCCNC(=N)N)NC(=O)[C@H](CCCNC(=N)N)NC(=O)[C@H](CC(N)=O)NC1=O [thanatin]	256 (≈ 105 µM)	256 (≈ 105 µM)	8 (≈ 3.29 µM)	256 (≈ 105 µM)	64 (≈ 26.3 µM)	128 (≈ 52.6 µM)	–	>256	does not permeabilise	8 (≈ 3.29 µM)	8 (≈ 3.29 µM)	2 (≈ 0.822 µM)	–	64 (≈ 26.3 µM)
